In one data set the test system is LNCap. Kind of data set: TUNEL assay. The format is cell-based, human. To be noted: LNCap, 2.5, 5 and 10 μM, 12 or 24 hours. On the procedure:
TUNEL assay is performed to detect whether cellular DNA is fragmented. The prostate cancer cells were treated with protoapigenone at various concentrations (2.5, 5 and 10 μM) for 12 or 24 hours, then were stained with TUNEL using the DeadEnd Colorimetric TUNEL system (Promega, Madison, Wis.). In brief, the prostate cancer cells were fixed with 4% paraformaldehyde for 30 minutes after protoapigenone treatment. Next, the fixed cells were incubated with digoxigenin-conjugated dUTP and nucleotide mixture in a recombinant terminal deoxynucleotide transferase-catalyzed reaction in the humidified atmosphere at 37° C. Subsequently, they were immersed in the stop buffer for 15 minutes at 37° C. The Cells were washed with PBS, then were incubated in DAB solutions for 15 minutes in dark. The stained cells were observed under the microscope. The percentage of TUNEL-positive cells were counted in 1000 cells, and the apoptosis index in the later period was calculated.

For data set [1], the system named is LNCap cells. Description: Cell cycle analysis (PI flow cytometry). To be noted: 6 hours and 12 hours. The format is cell-based, human. How it is done: The ovarian cancer cells and the prostate cancer cells respectively were treated with protoapigenone at different concentrations (0, 2.5, 5 and 10 μM) for 24 hours and 6 hours (or 12 hours). These cells were harvested by trypsin and fixed with 70% ethanol for 1 hour, washed with phosphate buffered saline (PBS) twice, and resuspended in propidium iodide (PI)/RNase A solution for 30 minutes. In accordance with the mechanism of DNA stained with propidium iodide, the cell cycle and sub-G1 distribution were detected by the FACScan flow cytometry (Becton Dickinson, San Jose, Calif.), and data analysis was done with CellQuest software (BD Bioscience).
(In general: Flow cytometry measures light scatter and fluorescence of single cells or particles in a stream.)

In a further data set the test system is C33A. Kind of data set: XTT cell proliferation assay (cytotoxicity). The settings on record: Homo sapiens, C-33-A; cervical cancer cell line C33A. Type of data set: cell-based. How it is done: (§1) Cells were seeded at 7×10^3 per well in 96-well culture plates before treatment with different concentrations of protoapigenone for 12, 24 and/or 48 hours. Next, the cytotoxicity of protoapigenone was determined using XTT cell proliferation assay (Sigma, St. Louis, Mo.). The absorbance of wavelength at 490 nm (OD490) and 650 nm (OD650) were determined respectively by enzyme-linked immunosorbent assay (ELISA) reader, and 50% of inhibitory concentration (IC50) was calculated by the value of OD490-OD650. In addition, in order to evaluate the long-term effect, the cells were treated with different concentration of protoapigenone for 3 hours, then were incubated with fresh medium for 14 days so as to form colonies. Finally, the cells were stained with crystal violet and were observed under the microscope.
On the technique in general: Tetrazolium assays rely on reduction of a dye to a coloured formazan, in cell work by metabolically active cells.

Data set [2] deals with SKOV3. Kind of data set: XTT cell proliferation assay (cytotoxicity). Type of data set: cell-based. To be noted: Homo sapiens, SK-OV-3; ovarian cancer cell line SKOV3. How it is done: as §1
Data set [3] can be described thus: XTT cell proliferation assay (cytotoxicity). The format is cell-based. How it is done: as §1
The next data set has as its system T47D. Description: XTT cell proliferation assay (cytotoxicity). The settings on record: Homo sapiens; breast cancer cell line T47D. Type of data set: cell-based. On the procedure:
as §1

The subject of another data set is MDA-MB-468. Description: XTT cell proliferation assay (cytotoxicity). The format is cell-based. To be noted: Homo sapiens; breast cancer cell line MDA-MB-468. On the procedure:
as §1

The next data set has as its system HeLa. Kind of data set: XTT cell proliferation assay (cytotoxicity). The settings on record: Homo sapiens; cervical cancer cell line HeLa. The format is cell-based. How it is done:
as §1

In data set [4] the test system is MDAH-2774. Kind of data set: Annexin V apoptosis assay. Type of data set: cell-based, human. The settings on record: MDAH-2774, 10 μM, 3 hours. How it is done:
(§2) The theory of this assay is to detect early apoptotic cells during the apoptotic progression. The ovarian cancer cells and the prostate cancer cells respectively were incubated with protoapigenone at 10 μM for 3 hours on chamber slides, washed with cold PBS twice and stained with a binding buffer containing annexin V-fluorescein isothiocyanate (FITC) (1 mg/ml; Strong Biotech, Taipei, Taiwan) and 4,6-diamidino-2-phenylinodole (Sigma-Aldrich) at 25° C. for 15 minutes. The stained cells were washed with PBS twice and observed under the fluorescent microscope.

Data set [5] deals with SKOV3. Description: Annexin V apoptosis assay. The format is cell-based, human. To be noted: SKOV3, 10 μM, 3 hours. On the procedure: as §2
Data set [6] concerns LNCap cells. Kind of data set: Annexin V apoptosis assay. Type of data set: cell-based, human. The settings on record: 10 μM, 3 hours. How it is done: as §2
Data set [7] deals with LNCap prostate cancer cells. Kind of data set: Nude mice xenograft model, tumor volume. The format is in vivo. The settings on record: 5 weeks. On the procedure:
MDAH-2774 human ovarian cancer cells of 2×10^6 (or LNCap prostate cancer cells of 1×10^6) in 0.1 ml PBS were injected subcutaneously at the right flank of 6-week-old female nude mice (Foxnlun/Foxulun). When tumors became visible (approximately 3×3 mm in size), the mice were randomly grouped and treated intraperitoneally with protoapigenone or vehicle every other day. […] Tumor size and body weight were measured twice a week using calipers, and their tumor volumes were calculated according to a standard formula: width^2×length/2. After treatment with protoapigenone for 5 weeks, the mice xenografted with LNCap cells were sacrificed by deep anesthesia, and the blood sampling by cardiac aspiration was done immediately after anesthesia. Complete blood count of the nude mice blood was determined by Sysmex XE-2100 (TOA Medical Electronics, Kobe, Japan), and the plasma blood urea nitrogen (BUN), creatine (Cr), asparatate aminotransferase (AST), and alanine aminotransferase (ALT) levels were determined by Beckman LX20 (Beckman-Coulter, U.S.A.)

The test system of data set [8] is MDAH-2774. Description: XTT cell proliferation assay (cytotoxicity). The format is cell-based, human. To be noted: Homo sapiens. How it is done:
as §1

As usually defined, the IC50 is the concentration at which inhibition is half-maximal. A lower IC50 goes with greater potency in that assay. Usually inhibition stands for the relative decrease from the control value, in per cent. Take `O=C1C=CC(O)(c2cc(=O)c3c(O)cc(O)cc3o2)C=C1` [protoapigenone]: in the data set with LNCap, the “ratio of TUNEL positive cells” value is “increased along with time and the increased protoapigenone concentrations”. Further, the cell cycle distribution entry in the data set with LNCap cells [1] is “arrests the LNCap cells at S and G2/M phases”. Moreover, the IC50 amounted to 4.69 ± 0.21 µM in the data set with C33A; 0.78 ± 0.28 µM in the data set with SKOV3 [2]; 8.98 ± 0.33 µM in [3] (HOSE 6-3 immortalized ovarian epithelial cells, immortalized human ovarian epithelial cells HOSE 6-3); 10.1 ± 0.53 µM in data set [3] (HOSE 11-12 immortalized ovarian epithelial cells, immortalized human ovarian epithelial cells HOSE 11-12); 33.6 ± 0.53 µM in data set [3] (MCF-10A immortalized breast epithelial cells, immortalized human breast epithelial cell MCF-10A); 5.13 ± 0.23 µM in the data set on T47D. Besides, the IC50 in the data set on MDA-MB-468 is 3.33 ± 1.25 µM; in the data set with HeLa, 3.66 ± 0.61 µM; in the data set with MDAH-2774 [8] (ovarian cancer cell line MDAH-2774, means ± SD of three independent experiments), 0.69 ± 0.92 µM. The “cell apoptosis (annexin V-FITC)” value in the data set on MDAH-2774 [4] was determined as 24.5%; in the data set with SKOV3 [5], 34.2%. Moreover, the “ratio of annexin V-FITC positive cells” value in the data set with LNCap cells [6] was found to be 24.2±1.3%. For the same compound, the average tumor size in data set [7] (high dose (3.7 μM/g body weight i.p. every other day)) is 1153.0±218.7 mm^3; in data set [7] (low dose (0.37 μM/g body weight i.p. every other day)), 1876.9±428.6 mm^3. Moreover, in the data set with MDAH-2774 [8] (MDAH-2774, 1 μM protoapigenone, read-out: inhibition of cell growth), the inhibition at 1 µM is 25%. The inhibition at 2.5 µM in the data set on MDAH-2774 [8] (MDAH-2774, 2.5 μM protoapigenone, read-out: inhibition of cell growth) was 53.4%.

The values are drawn from patent publication US20100062078A1, “PHARMACEUTICAL COMPOSITION FOR TREATING CANCER AND THE SIGNALING PATHWAY THEREOF” (priority 2008, published 2010).
